Assays:
[1] = molecular target: T1, short form of the GPR120 receptor (GPR120S) (Homo sapiens, UniProt Q5NUL3); assay: Human GPR120 DiscoveRx PathHunter Beta-Arrestin assay, Procedure β-arrestin B; type: cell-based; conditions: PathHunter CHO-K1 GPR120S β-Arrestin cell line, 5000 cells/well, read-out: hGPR120 β-arrestin B EC50
T1 construct: host or cells: PathHunter CHO-K1 GPR120S β-Arrestin Cell Line
Description: The binding of an agonist (medium/long chain fatty acids or small molecule agonists) to the G-protein-coupled receptor GPR120 activates phospholipase C, leading to release of intracellular Ca^+2 through the generation of inositol 1,4,5-trisphosphate (InsP3 or IP3). GPR120 activation can also trigger intracellular signaling via recruitment of Beta-Arrestin. In the present method, agonist-induced activation of the human GPR120 receptor is monitored through the use of PathHunter CHO-K1 GPR120 Beta-Arrestin Cell Line engineered by DiscoveRx, as detailed below. The cell lines are designed to co-express both the ProLink/Enzyme Donor (PK)-tagged GPCR and the Enzyme […] (EA)-tagged Beta-Arrestin fusion proteins. Upon GPR120 receptor stimulation/activation, the EA-tagged Beta-Arrestin portion is translocated to the tagged receptor, where the two enzyme fragments are brought within close proximity. Under these conditions, these fragments can interact and form an active Beta-gal enzyme complex through Enzyme Fragment Complementation (EFC). This active Beta-gal complex can enzymatically hydrolyse the substrate to produce a detectable light signal; therefore, activation as a function of agonist concentration can be expressed as an EC50 value to determine relative compound activities. This in vitro assay therefore serves to assess compound agonist activity of the GPR120. Procedure β-Arrestin A: In Procedure β-arrestin A, the cell used were PathHunter CHO-K1 GPR120 β-Arrestin Cell Line, expressing the long form of human GPR120 (Genbank accession number NM 181745), with 3000 cells per well. Procedure β-Arrestin B: In Procedure 3-arrestin B the cells used were PathHunter CHO-K1 GPR120S β-Arrestin Cell Line, expressing the short form of the GPR120 receptor (Accession #NM_181745), with 5000 cells/well. Assay Procedure:
The selected CHO-K1 GPR120 β-Arrestin cells were cultured in Ham's F12 media supplemented with 10% fetal bovine serum (FBS), 1% Glutamine, lx p/s, 800 μg/mL G418 and 300 μg/mL Hygromycin B (for selection). Cell stocks were maintained and grown in a sub-confluent state using standard cell culture procedures. The day before the experiment, the cells were harvested with non-enzymatic cell dissociation buffer and re-suspended in complete growth media at the desired concentration. A Corning 384-plate was then seeded with the proper number of cells in a volume of 25 μL, per well. The seeded plates were incubated overnight at 37° C.
On the day of the experiment, the Assay Buffer containing (a) HBSS with Ca^++ and Mg^++, (b) 20 mM HEPES, and (c) 0.1% BSA stabilizer (pH 7.4) was prepared. The growth medium was gently removed from the cell plates and 20 μL of Assay Buffer added to each well. The plate was then incubated at 37° C. for 60 min. Test compounds were serially diluted in Assay Buffer to desired concentrations (more particularly to one or more of the following μM concentrations: 25, 12.5, 6.25, 3.125, 1.5625, 0.78125, 0.390625, 0.1953125, 0.09765625, 0.048828125, 0.024414063, 0.012207031). Five μL of compound dilution was then added to each well and the plate incubated at 37° C. for 90 min. The detection reagents were prepared according to the manufacture's instruction. Twelve μL of the detection reagents were added to each well and the plate incubated at room temperature for 60 min.
The plates were read on an EnVision instrument, using Protocol name: Luminescence, Plate type: 384 Costar, Measurement height: 3 mm, Measurement time: 1 s, Aperture: 384 Plate aperture. The % activity relative to the positive control was calculated using the following equation:
The % Activity values were plotted versus the concentration of test compound and fitted to a sigmoidal dose-response curve with a Hill slope=1 (fixed value) using nonlinear regression with GraphPad Prism 5.0 to calculate the EC50 values. […]

Human GPR120 short form = molecular target: T2, Human GPR120 short form (Homo sapiens, UniProt Q5NUL3); assay: Human GPR120 calcium flux assay (FLIPR), Procedure Calcium A; type: cell-based; conditions: HEK-293 cells expressing human GPR120 short form, 2500 cells/well; read-out: GPR120 Ca2+ Assay A EC50
T2 construct: expressed in transfected cells
T2 sequence (Q5NUL3 1-361): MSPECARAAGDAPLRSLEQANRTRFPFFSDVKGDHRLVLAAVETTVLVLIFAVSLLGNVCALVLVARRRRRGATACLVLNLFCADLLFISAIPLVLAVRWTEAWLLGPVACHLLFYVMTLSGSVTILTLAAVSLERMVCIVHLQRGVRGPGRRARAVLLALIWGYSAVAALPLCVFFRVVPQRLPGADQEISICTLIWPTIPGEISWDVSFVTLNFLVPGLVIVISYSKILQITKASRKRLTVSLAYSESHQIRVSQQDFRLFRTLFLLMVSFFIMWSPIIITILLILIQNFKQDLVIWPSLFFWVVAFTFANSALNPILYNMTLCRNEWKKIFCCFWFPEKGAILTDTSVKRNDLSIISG
Outline: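 HEK293 cells stably expressing the short isoform (NM_001195755.1), 2500/well, starved 1 h, then loaded with Fluo-4 NW plus probenecid (30 min 37 °C, 15 min RT). Compound solutions 0.012–100 μM, 0.2% DMSO final; FLIPR read 300 s after addition. EC50 from Fmax−Fmin fitted to variable-slope sigmoid (Hill <2).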

T1 sequence (P32121 whole entry partner, one chain of several): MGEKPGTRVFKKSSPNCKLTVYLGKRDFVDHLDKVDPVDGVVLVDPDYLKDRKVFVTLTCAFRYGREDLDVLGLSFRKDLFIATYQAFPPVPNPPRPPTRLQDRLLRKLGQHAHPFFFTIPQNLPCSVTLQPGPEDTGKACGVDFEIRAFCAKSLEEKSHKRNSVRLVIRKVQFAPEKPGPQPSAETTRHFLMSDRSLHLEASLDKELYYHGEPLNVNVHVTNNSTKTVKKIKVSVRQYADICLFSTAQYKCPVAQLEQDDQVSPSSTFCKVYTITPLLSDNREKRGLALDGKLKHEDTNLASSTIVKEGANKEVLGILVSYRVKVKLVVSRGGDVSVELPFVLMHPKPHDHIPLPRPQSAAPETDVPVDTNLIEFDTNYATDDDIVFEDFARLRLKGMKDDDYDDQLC

| Compound | EC50 [1] [nM] | EC50 (Human GPR120 short form) [nM] |
| --- | --- | --- |
| CC(Cc1cc(F)c(OCc2c(-c3ccc(Cl)c(F)c3)nsc2C(F)(F)F)c(F)c1)C(=O)O (stereo not drawn) [Cpd 90, 3-(4-((3-(4-chloro-3-fluorophenyl)-5-(trifluoromethyl)isothiazol-4-yl)methoxy)-3,5-difluorophenyl)-2-methylpropanoic acid] | 154 | 67 |
| Cc1ccc(-c2snc(C(F)(F)F)c2COc2c(F)cc(CCC(=O)O)cc2F)c(F)c1 [Cpd 95, 3-(3,5-difluoro-4-[[5-(2-fluoro-4-methylphenyl)-3-(trifluoromethyl)-1,2-thiazol-4-yl]methoxy]phenyl)propanoic acid] | 116 | 72 |
| Cc1ccc(-c2nsc(C(F)(F)F)c2COc2ccc(CCC(=O)O)c(C)c2C)cc1F [Cpd 109, 3-(4-[[3-(3-fluoro-4-methylphenyl)-5-(trifluoromethyl)-1,2-thiazol-4-yl]methoxy]-2,3-dimethylphenyl)propanoic acid] | 75 | 89 |
| COc1cccc(-c2nsc(C(F)(F)F)c2COc2ccc(CCC(=O)O)c(C)c2C)c1 [Cpd 126, 3-(4-[[3-(3-methoxyphenyl)-5-(trifluoromethyl)-1,2-thiazol-4-yl]methoxy]-2,3-dimethylphenyl) propanoic acid] | 223 | 121 |
| Cc1c(CCC(=O)O)ccc(OCc2c(C(F)(F)F)nsc2-c2ccc(Cl)c(F)c2)c1C [Cpd 136, 3-(4-[[5-(4-chloro-3-fluorophenyl)-3-(trifluoromethyl)-1,2-thiazol-4-yl]methoxy]-2,3-dimethylphenyl)propanoic acid] | 526 | 135 |
| Cc1c(CCC(=O)O)ccc(OCc2c(C3CC(F)(F)C3)nsc2C(F)(F)F)c1C [Cpd 137, 3-(4-[[3-(3,3-difluorocyclobutyl)-5-(trifluoromethyl)-1,2-thiazol-4-yl]methoxy]-2,3-dimethylphenyl) propanoic acid] | 413 | 137 |
| Cc1c(CCC(=O)O)ccc(OCc2c(-c3ccc(F)c(F)c3)nsc2C(F)(F)F)c1C [Cpd 143, 3-(4-((3-(3,4-difluorophenyl)-5-(trifluoromethyl)isothiazol-4-yl)methoxy)-2,3-dimethylphenyl)propanoic acid] | 374 | 156 |

Further lines, results first:

| EC50 [1] [nM] | EC50 (Human GPR120 short form) [nM] | Compound |
| --- | --- | --- |
| 31 | 69 | Cc1ccc(-c2nsc(C(F)(F)F)c2COc2c(F)cc(CCC(=O)O)cc2F)cc1F [Cpd 91, 3-(3,5-difluoro-4-[[3-(3-fluoro-4-methylphenyl)-5-(trifluoromethyl)-1,2-thiazol-4-yl]methoxy]phenyl)propanoic acid] |
| 104 | 71 | COc1cccc(-c2nsc(C(F)(F)F)c2COc2c(F)cc(CCC(=O)O)cc2F)c1 [Cpd 94, 3-(3,5-difluoro-4-[[3-(3-methoxyphenyl)-5-(trifluoromethyl)-1,2-thiazol-4-yl]methoxy]phenyl)propanoic acid] |
| 105 | 94 | O=C(O)CCc1cc(F)c(OCc2c(C(F)(F)F)nsc2-c2ccc(Cl)c(F)c2)c(F)c1 [Cpd 110, 3-(4-[[5-(4-chloro-3-fluorophenyl)-3-(trifluoromethyl)-1,2-thiazol-4-yl]methoxy]-3,5-difluorophenyl) propanoic acid] |
| 51 | 108 | O=C(O)CCc1cc(F)c(OCc2c(-c3ccc(C(F)(F)F)cc3)nsc2C(F)(F)F)c(F)c1 [Cpd 121, 3-(3,5-difluoro-4-[[5-(trifluoromethyl)-3-[4-(trifluoromethyl)phenyl]-1,2-thiazol-4-yl]methoxy]phenyl)propanoic acid] |
| 59 | 124 | CCc1ccc(-c2nsc(C(F)(F)F)c2COc2c(F)cc(CCC(=O)O)cc2F)c(F)c1 [Cpd 128, 3-(4-((3-(4-ethyl-2-fluorophenyl)-5-(trifluoromethyl)isothiazol-4-yl)methoxy)-3,5-difluorophenyl)propanoic acid] |
